# Assay results: article PMC8342789, “Structural insights into a flavin-dependent dehalogenase HadA explain catalysis and substrate inhibition via quadruple π-stacking” (The Journal of Biological Chemistry, 2021)
# Numbering of substitutions follows the chain as printed.
# B1: wild-type HadA, flavin-dependent monooxygenase/dehalogenase component from Ralstonia pickettii (enzyme, UniProt Q53008 1-517, looked up)
# chain: MIRTGTQYLESLNDGRNVWVGNEKIDNVATHPKTRDYAQRHADFYDLHHRPDLQDVMTYIDEGGQRRAMQWFGHRDKEQLRRKRKYHETVMREMAGASFPRTPDVNNYVLTTYIDDPAPWETQSIGDDGHIKAGKIVDFIRYAREHDLNCAPQFVDPQMDRSNPDAQERSPGLRVVEKNEKGIVVNGVKAIGTGVAFADWIHIGVFFRPGIPGDQVIFAATPVNTPGVTIVCRESLVKDDKVEHPLAAQGDELDGMTVFENVFIPWSHVFHIGNPNHAKLYPQRVFDWLHYHALIRQMVRAELVAGLAVLITEHIGTNKIPAVQTRVAKLIGFHQAMLAHLIASEELGFHTPGGHYKPNILIYDFGRALYLENFSQMIYELVDLSGRSALIFASEDQWNDDKLNGWFERMNNGPVGRPHDRVKIGRVIRDLFLTDWGSRLFVFENFNGTPLQGIRMLTMQRAEFSGSGPYGKLARQVCGIDSAVTDDTEYRKTADYAKALDAARHQEEVALAGAMAI
# notes: HadA monooxygenase of the had pathway, Ralstonia pickettii; each protomer is described as N-terminal domain (residues 1-146), beta-sheet domain (147-275) and C-terminal domain (276-517); also called HadAWT; HadA monooxygenase; source: plasmid hadAWT-pET-11a
# B2: HadA Phe441Val variant (enzyme)
# chain: B1 chain with F441V
# notes: HadA monooxygenase, Ralstonia pickettii, with Phe441Val; same limits as the wild type (domains described over residues 1-517); source: site-directed mutagenesis of hadAWT-pET-11a
# Key:
# HadA [1] = target: T1, HadA (Ralstonia pickettii, UniProt Q53008); test: stopped-flow and HPLC of hydroquinone product; format: biochemical; details: 0.1-6.4 mM 4CP preincubated with enzyme; 25 μM FADH-; 20 mM Hepes pH 7.5; substrate inhibition by dead-end complex
# T1 construct: recombinant, E. coli plasmid hadAWT-pET-11a; homotetramer (dimer of dimers); residues 1-517 by domain borders
# T1 sequence (Q53008 1-517): B1 chain
# HadA [2] = target: T1, HadA; test: X-ray crystal structure, […] Å; format: binding
# [3] = target: the molecule itself; test: crystal structure; HadA (0.3 mM) mixed with FADH- (12 mM) and 4NP (12 mM) in an anaerobic glove box, incubated 2 h; microbatch at 25 °C, sodium citrate, PEG3350, 5% trifluoroethanol, 0.1 M Bis-Tris propane pH 6.5; data at 100 K; molecular replacement with apo-HadA (PDB 6JHM chain A)
molecule,measurement,setting,value
Oc1ccc(Cl)cc1 [4-chlorophenol],stopped-flow and HPLC of hydroquinone product,HadA [1],increasing the 4CP concentration significantly altered the kinetics of the reaction
O=[N+]([O-])c1ccc(O)cc1 [4-nitrophenol],"X-ray crystal structure, 2.3 Å","HadA [2]; ternary complex with FADH-, active site of subunit A, second site at C/D dimer interface (two 4NP, quadruple π-stacking)",only one 4NP molecule could be clearly seen in the expected pocket of subunit A
Cc1cc2c(cc1C)N(C[C@H](O)[C@H](O)[C@H](O)COP(=O)(O)OP(=O)(O)OC[C@H]1O[C@@H](n3cnc4c(N)ncnc43)[C@H](O)[C@@H]1O)c1[nH]c(=O)[nH]c(=O)c1N2 [FADH^–],"X-ray crystal structure, 2.3 Å",HadA [2]; ternary complex with 4NP,strong electron densities could be observed for all four FADH^– molecules
B1,stoichiometry N,[3],4
B2,binding result,[3],binds
